# Literature values, collected in patent US20050250674A1, “Nutritional and food supplement preparation comprising creatine and orotic acid complexes, derivatives and analogs” (priority 2004, published 2005).
# Conditions: oral ingestion of about 20 to 30 g per day, divided between several doses, for several days
smiles,measurement,value
"CN(CC(=O)O)C(=N)N [creatine, methyl guanidine-acetic acid]",increase in human skeletal muscle total creatine content,greater than 20%
